Experimental data published in ChEMBL document CHEMBL5390316, “Enniatin A Analogues as Novel Hsp90 Inhibitors that Modulate Triple-Negative Breast Cancer” (ACS Med Chem Lett, 2023).
Activity calls are given as the source filed them. The rule behind the calls is not given here.

Experiments:
Hs-578T [1] = assay: Induction of heat shock response in human Hs-578T cells assessed as reduction in Hsp70 level at 1 uM incubated for 24 hrs by Western blot analysis; format: functional, cell-based
Hs-578T [2] = assay: Induction of heat shock response in human Hs-578T cells assessed as reduction in Hsp40 level at 1 uM incubated for 24 hrs by Western blot analysis; format: functional, cell-based
Hs-578T [3] = assay: Antiproliferative activity against human Hs-578T cells assessed as reduction in cell viability incubated for 48 hrs by MTT assay; format: functional, cell-based
[4] = target: Heat shock protein HSP90 (Homo sapiens) (UniProt P07900+P08238); assay: Inhibition of HSP90 in human Hs-578T cells assessed as degradation of CDK4 at 5 uM incubated for 24 hrs by Western blot analysis; format: cell-based
Hs-578T [5] = assay: Induction of heat shock response in human Hs-578T cells assessed as change in Hsp70 level at 5 uM incubated for 24 hrs by Western blot analysis; format: functional, cell-based
Hs-578T [6] = assay: Induction of heat shock response in human Hs-578T cells assessed as change in Hsp40 level at 5 uM incubated for 24 hrs by Western blot analysis; format: functional, cell-based
E0771 [7] = assay: In vivo inhibition of HSP90 in mouse E0771 cells implanted in C57BL/6 mouse at 10 mg/kg, ip administered every 48 hrs for 3 weeks by Western blot analysis; format: functional, organism-based
EO771 [8] = assay: Inhibition of HSP90 in mouse EO771 cells assessed as change in ILK level at 7.5 uM incubated for 24 hrs by Western blot analysis; format: cell-based
E0771 [9] = assay: In vivo inhibition of HSP90 in mouse E0771 cells implanted in C57BL/6 mouse assessed as change in p-Akt/Akt ratio at 10 mg/kg, ip administered every 48 hrs for 3 weeks by Western blot analysis; format: functional, organism-based
4T1 [10] = assay: Inhibition of HSP90 in mouse 4T1 cells assessed as reduction in ILK level at 7.5 uM incubated for 24 hrs by Western blot analysis; format: cell-based
EO771 [11] = assay: Inhibition of HSP90 in mouse EO771 cells assessed as change in CDK4 level at 7.5 uM incubated for 24 hrs by Western blot analysis; format: cell-based
EO771 [12] = assay: Antiproliferative activity against mouse E0771 cells implanted in C57BL/6 mouse assessed as inhibition of tumor volume at 10 mg/kg, ip administered every 48 hrs for 3 weeks; format: functional, organism-based
4T1 [13] = assay: Inhibition of HSP90 in mouse 4T1 cells assessed as reduction in CDK4 level at 7.5 uM incubated for 24 hrs by Western blot analysis; format: cell-based
EO771 [14] = assay: Induction of heat shock response in mouse EO771 cells assessed as change in Hsp70 level at 7.5 uM incubated for 24 hrs by Western blot analysis; format: functional, cell-based
E0771 [15] = assay: In vivo inhibition of HSP90 in mouse E0771 cells implanted in C57BL/6 mouse assessed as change in CDK4 at 10 mg/kg, ip administered every 48 hrs for 3 weeks by Western blot analysis; format: functional, organism-based
E0771 [16] = assay: In vivo inhibition of HSP90 in mouse E0771 cells implanted in C57BL/6 mouse assessed as change in ILK at 10 mg/kg, ip administered every 48 hrs for 3 weeks by Western blot analysis; format: functional, organism-based
4T1 [17] = assay: Induction of heat shock response in mouse 4T1 cells assessed as change in Hsp70 level at 7.5 uM incubated for 24 hrs by Western blot analysis; format: functional, cell-based
E0771 [18] = assay: In vivo induction of heat shock response in mouse E0771 cells implanted in C57BL/6 mouse assessed as increased Hsp40 level at 10 mg/kg, ip administered every 48 hrs for 3 weeks by Western blot analysis; format: functional, organism-based
E0771 [19] = assay: In vivo induction of heat shock response in mouse E0771 cells implanted in C57BL/6 mouse assessed as increased Hsp70 level at 10 mg/kg, ip administered every 48 hrs for 3 weeks by Western blot analysis; format: functional, organism-based

C=CCNC1=C2C[C@@H](C)C[C@H](OC)[C@H](O)[C@@H](C)/C=C(\C)[C@H](OC(N)=O)[C@@H](OC)/C=C\C=C(/C)C(=O)NC(=CC1=O)C2=O
Activity (Hs-578T [1]): Active | Activity (Hs-578T [2]): Active

CC[C@H](C)[C@H]1C(=O)O[C@H](C(C)C)C(=O)N(C)[C@@H]([C@@H](C)CC)C(=O)O[C@H](C(C)C)C(=O)N(C)[C@@H]([C@@H](C)CC)C(=O)O[C@H](Cc2ccc3ccccc3c2)C(=O)N1C
IC50 (Hs-578T [3]): 8 µM

CC[C@H](C)[C@H]1C(=O)O[C@H](C(C)C)C(=O)N(C)[C@@H](Cc2ccccc2)C(=O)O[C@H](C(C)C)C(=O)N(C)[C@@H]([C@@H](C)CC)C(=O)O[C@H](C(C)C)C(=O)N1C
inhibition [4]: Active | Activity (Hs-578T [5]): inactive | Activity (Hs-578T [6]): inactive | IC50 (Hs-578T [3]): 8 µM

CC[C@H](C)[C@H]1C(=O)O[C@H](C(C)C)C(=O)N(C)[C@@H]([C@@H](C)CC)C(=O)O[C@H](C(C)C)C(=O)N(C)[C@@H]([C@@H](C)CC)C(=O)O[C@H](Cc2ccc(C)cc2)C(=O)N1C
IC50 (Hs-578T [3]): 8.34 µM

CC[C@H](C)[C@H]1C(=O)O[C@H](C(C)C)C(=O)N(C)[C@@H]([C@@H](C)CC)C(=O)O[C@H](C(C)C)C(=O)N(C)CC(=O)O[C@H](C(C)C)C(=O)N1C
IC50 (Hs-578T [3]): 16.7 µM

CC[C@H](C)[C@H]1C(=O)O[C@H](C(C)C)C(=O)N(C)[C@@H]([C@@H](C)CC)C(=O)O[C@H](C(C)C)C(=O)N(C)[C@@H]([C@@H](C)CC)C(=O)O[C@H](C(C)C)C(=O)N1C
inhibition (E0771 [7]): inactive | inhibition [4]: Active | inhibition (EO771 [8]): inactive | inhibition (E0771 [9]): Active | inhibition (4T1 [10]): Active | inhibition (EO771 [11]): inactive | Activity (Hs-578T [5]): inactive | Activity (EO771 [12]): Active | Activity (Hs-578T [6]): inactive | inhibition (4T1 [13]): Active | Activity (EO771 [14]): inactive | inhibition (E0771 [15]): Active | IC50 (Hs-578T [3]): 7.39 µM | inhibition (E0771 [16]): Active | Activity (4T1 [17]): inactive

CC[C@H](C)[C@H]1C(=O)O[C@H](C(C)C)C(=O)N(C)[C@@H]([C@@H](C)CC)C(=O)O[C@H](C(C)C)C(=O)N(C)[C@@H]([C@@H](C)CC)C(=O)O[C@H](CCc2ccccc2)C(=O)N1C
IC50 (Hs-578T [3]): 8.1 µM

CC[C@H](C)[C@H]1C(=O)O[C@H](C(C)C)C(=O)N(C)[C@@H]([C@@H](C)CC)C(=O)O[C@H](C(C)C)C(=O)N(C)[C@@H]([C@@H](C)CC)C(=O)OCC(=O)N1C
IC50 (Hs-578T [3]): 16 µM

CC[C@H](C)[C@H]1C(=O)O[C@H](C(C)C)C(=O)N(C)[C@@H](C)C(=O)O[C@H](C(C)C)C(=O)N(C)[C@@H]([C@@H](C)CC)C(=O)O[C@H](C(C)C)C(=O)N1C
IC50 (Hs-578T [3]): 16.2 µM

CC[C@H](C)[C@H]1C(=O)O[C@H](C(C)C)C(=O)N(C)[C@@H]([C@@H](C)CC)C(=O)O[C@H](C(C)C)C(=O)N(C)[C@@H]([C@@H](C)CC)C(=O)O[C@H](Cc2ccccc2)C(=O)N1C
Activity (E0771 [18]): Active | inhibition (E0771 [7]): inactive | inhibition [4]: Active | inhibition (EO771 [8]): inactive | Activity (E0771 [19]): Active | inhibition (E0771 [9]): Active | inhibition (4T1 [10]): Active | inhibition (EO771 [11]): inactive | Activity (Hs-578T [5]): inactive | Activity (EO771 [12]): Active | Activity (Hs-578T [6]): inactive | inhibition (4T1 [13]): Active | Activity (EO771 [14]): inactive | inhibition (E0771 [15]): Active | IC50 (Hs-578T [3]): 4.36 µM | inhibition (E0771 [16]): Active | Activity (4T1 [17]): inactive

CC[C@H](C)[C@H]1C(=O)O[C@H](C(C)C)C(=O)N(C)[C@@H]([C@@H](C)CC)C(=O)O[C@H](C(C)C)C(=O)N(C)[C@@H]([C@@H](C)CC)C(=O)O[C@H](C)C(=O)N1C
IC50 (Hs-578T [3]): 13 µM
